Test results: US20230151025A1, “SUBSTITUTED THIAZOLOPYRIDINES, SALTS THEREOF AND THEIR USE AS HERBICIDALLY ACTIVE SUBSTANCES” (Bayer Aktiengesellschaft, priority 2020, published 2023)

Tests used:
Assay type in all cases: in vivo
[1] = test system: Alopecurus myosuroides (ALOMY); assay: Herbicidal pre-emergence action (A), 1280 g/ha; conditions: visual grading after ca. 3 weeks vs untreated controls, 100% = plants have died off, 0% = as control plants
Method in brief: (§1)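 Seeds were sown in sandy loam pots (one mono- and one dicot weed per pot) and covered with soil; WP or EC formulations were applied to the soil surface as aqueous suspension/emulsion with 0.5% additive at 600 l water/ha. Damage was scored visually after ca. 3 weeks versus untreated controls (0% = control, 100% = dead).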

[2] = test system: Amaranthus retroflexus (AMARE); assay: Herbicidal pre-emergence action (A), 1280 g/ha; conditions: visual grading after ca. 3 weeks vs untreated controls
Method in brief: as §1

[3] = test system: Echinochloa crus-galli (ECHCG); assay: Herbicidal pre-emergence action (A), 1280 g/ha; conditions: visual grading after ca. 3 weeks vs untreated controls, 100% = plants have died off, 0% = as control plants
Method in brief: as §1

[4] = test system: Kochia scoparia (KCHSC; Bassia scoparia); assay: Herbicidal pre-emergence action (A), 1280 g/ha; conditions: visual grading after ca. 3 weeks vs untreated controls
Method in brief: as §1

[5] = test system: Lolium rigidum (LOLRI); assay: Herbicidal pre-emergence action (A), 1280 g/ha; conditions: visual grading after ca. 3 weeks vs untreated controls, 100% = plants have died off, 0% = as control plants
Method in brief: as §1

[6] = test system: Matricaria inodora (MATIN); assay: Herbicidal pre-emergence action (A), 1280 g/ha; conditions: visual grading after ca. 3 weeks vs untreated controls
Method in brief: as §1

[7] = test system: Poa annua (POAAN); assay: Herbicidal pre-emergence action (A), 1280 g/ha; conditions: visual grading after ca. 3 weeks vs untreated controls, 100% = plants have died off, 0% = as control plants
Method in brief: as §1

[8] = test system: Setaria viridis (SETVI); assay: Herbicidal pre-emergence action (A), 1280 g/ha; conditions: visual grading after ca. 3 weeks vs untreated controls
Method in brief: as §1

[9] = test system: Stellaria media (STEME); assay: Herbicidal pre-emergence action (A), 1280 g/ha; conditions: visual grading after ca. 3 weeks vs untreated controls
Method in brief: as §1

[10] = test system: Veronica persica (VERPE); assay: Herbicidal pre-emergence action (A), 1280 g/ha; conditions: visual grading after ca. 3 weeks vs untreated controls
Method in brief: as §1

[11] = test system: Amaranthus retroflexus (AMARE); assay: Herbicidal post-emergence action (B), 1280 g/ha; conditions: rated visually after about 3 weeks vs untreated controls
Method in brief: (§2)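 Post-emergence spray, one-leaf stage; WP/EC formulation, aqueous, 0.5% additive, 600 L/ha water. Sandy loam, greenhouse, doubly sown pots. Visual % rating vs untreated control at ~3 weeks (100% = dead).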

[12] = test system: Echinochloa crus-galli (ECHCG); assay: Herbicidal post-emergence action (B), 1280 g/ha; conditions: rated visually after about 3 weeks vs untreated controls
Method in brief: as §2

[13] = test system: Kochia scoparia (KCHSC; Bassia scoparia); assay: Herbicidal post-emergence action (B), 1280 g/ha
Method in brief: as §2

[14] = test system: Poa annua (POAAN); assay: Herbicidal post-emergence action (B), 1280 g/ha; conditions: rated visually after about 3 weeks vs untreated controls
Method in brief: as §2

[15] = test system: Stellaria media (STEME); assay: Herbicidal post-emergence action (B), 1280 g/ha
Method in brief: as §2

[16] = test system: Veronica persica (VERPE); assay: Herbicidal post-emergence action (B), 1280 g/ha
Method in brief: as §2

[17] = test system: Alopecurus myosuroides (ALOMY); assay: Herbicidal pre-emergence action (C), 320 g/ha; conditions: ca. 3 weeks
Method in brief: (§3)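 Seeds sown in sandy loam and covered with soil; compounds formulated as WP or EC were sprayed onto the covering soil as aqueous suspension/emulsion with 0.5% additive at 600 l water/ha. Pots kept in greenhouse; damage graded visually after ca. 3 weeks versus untreated controls (0% = as control, 100% = plants dead).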

[18] = test system: Amaranthus retroflexus (AMARE); assay: Herbicidal pre-emergence action (C), 320 g/ha; conditions: ca. 3 weeks
Method in brief: as §3

[19] = test system: Echinochloa crus-galli (ECHCG); assay: Herbicidal pre-emergence action (C), 320 g/ha; conditions: ca. 3 weeks
Method in brief: as §3

[20] = test system: Lolium rigidum (LOLRI); assay: Herbicidal pre-emergence action (C), 320 g/ha; conditions: ca. 3 weeks
Method in brief: as §3

[21] = test system: Matricaria inodora (MATIN); assay: Herbicidal pre-emergence action (C), 320 g/ha; conditions: ca. 3 weeks
Method in brief: as §3

[22] = test system: Setaria viridis (SETVI); assay: Herbicidal pre-emergence action (C), 320 g/ha; conditions: ca. 3 weeks
Method in brief: as §3

[23] = test system: Veronica persica (VERPE); assay: Herbicidal pre-emergence action (C), 320 g/ha; conditions: ca. 3 weeks
Method in brief: as §3

[24] = test system: Viola tricolor (VIOTR); assay: Herbicidal pre-emergence action (C), 320 g/ha; conditions: ca. 3 weeks
Method in brief: as §3

[25] = test system: Alopecurus myosuroides (ALOMY); assay: Herbicidal post-emergence action (D), 320 g/ha; conditions: ca. 3 weeks
Method in brief: (§4)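 Visual % herbicidal effect vs untreated controls (100% = dead, 0% = like control), rated ca. 3 weeks after post-emergence spray. Plants treated at single-leaf stage, 2 to 3 weeks after sowing in sandy loam; aqueous WP/EC spray, 0.5% additive, 600 l water/ha.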

[26] = test system: Amaranthus retroflexus (AMARE); assay: Herbicidal post-emergence action (D), 320 g/ha; conditions: ca. 3 weeks
Method in brief: as §4

[27] = test system: Echinochloa crus-galli (ECHCG); assay: Herbicidal post-emergence action (D), 320 g/ha; conditions: ca. 3 weeks
Method in brief: as §4

[28] = test system: Polygonum convolvulus (POLCO); assay: Herbicidal post-emergence action (D), 320 g/ha; conditions: ca. 3 weeks
Method in brief: as §4

[29] = test system: Setaria viridis (SETVI); assay: Herbicidal post-emergence action (D), 320 g/ha; conditions: ca. 3 weeks
Method in brief: as §4

[30] = test system: Veronica persica (VERPE); assay: Herbicidal post-emergence action (D), 320 g/ha; conditions: ca. 3 weeks
Method in brief: as §4

[31] = test system: Abutilon theophrasti (ABUTH); assay: Herbicidal pre-emergence action (A), 1280 g/ha; conditions: visual grading after ca. 3 weeks vs untreated controls, 100% = plants have died off, 0% = as control plants
Method in brief: as §1

[32] = test system: Digitaria sanguinalis (DIGSA); assay: Herbicidal pre-emergence action (A), 1280 g/ha; conditions: visual grading after ca. 3 weeks vs untreated controls, 100% = plants have died off, 0% = as control plants
Method in brief: as §1

[33] = test system: Alopecurus myosuroides (ALOMY); assay: Herbicidal post-emergence action (B), 1280 g/ha; conditions: rated visually after about 3 weeks vs untreated controls
Method in brief: as §2

[34] = test system: Polygonum convolvulus (POLCO); assay: Herbicidal pre-emergence action (C), 320 g/ha; conditions: ca. 3 weeks
Method in brief: as §3

[35] = test system: Digitaria sanguinalis (DIGSA); assay: Herbicidal pre-emergence action (C), 320 g/ha; conditions: ca. 3 weeks
Text: (§5) Seeds of mono- and dicotyledonous weed plants and crop plants were sown, in plastic or organic planting pots, in sandy loam and covered with soil. The compounds according to the invention, formulated in the form of wettable powders (WP) or as emulsifiable concentrates (EC), were applied to the surface of the covering soil as aqueous suspension or emulsion, with the addition of 0.5% of an additive, at an application rate of 600 l of water/ha (converted).
(§6) Following treatment, the pots were placed in a greenhouse and kept under optimum growth conditions for the test plants. The visual grading of the damage to the test plants was carried out after ca. 3 weeks in comparison to untreated controls (herbicidal effect in percent (%): 100% effect=plants have died off, 0% effect=as control plants).
(§7) Tables C1 to C13 below show the effects of selected compounds of the general formula (I) according to table 1 on various harmful plants and an application rate corresponding to 320 g/ha obtained by the experimental procedure mentioned above.

[36] = test system: Abutilon theophrasti (ABUTH); assay: Herbicidal pre-emergence action (C), 320 g/ha; conditions: ca. 3 weeks
Method in brief: as §3

[37] = test system: Avena fatua; assay: Herbicidal pre-emergence action (C), 320 g/ha; conditions: ca. 3 weeks
Text: as §5, §6, §7

[38] = test system: Abutilon theophrasti (ABUTH); assay: Herbicidal post-emergence action (B), 1280 g/ha; conditions: rated visually after about 3 weeks vs untreated controls
Method in brief: as §2

Row | Compound | ALOMY, herbicidal effect in percent (%) [1] [%] | herbicidal effect AMARE [2] [%] | ECHCG, herbicidal effect in percent (%) [3] [%] | herbicidal effect KCHSC [4] [%] | LOLRI, herbicidal effect in percent (%) [5] [%] | herbicidal effect MATIN [6] [%] | POAAN, herbicidal effect in percent (%) [7] [%] | herbicidal effect SETVI [8] [%] | herbicidal effect STEME [9] [%] | herbicidal effect VERPE [10] [%] | herbicidal activity AMARE [11] [%] | herbicidal effect KCHSC [13] [%] | herbicidal activity POAAN [14] [%] | herbicidal effect ALOMY [17] [%] | herbicidal effect AMARE [18] [%] | herbicidal effect LOLRI [20] [%] | herbicidal effect SETVI [22] [%] | herbicidal effect VERPE [23] [%] | herbicidal effect ALOMY [25] [%] | herbicidal effect AMARE [26] [%] | also measured
1 | CC(C)c1cc2scnc2nc1-c1ccccc1F [Example I-184] | 90 | 90 | 100 | 90 | 100 | 90 | 100 | 100 | 90 | 90 | 100 | 90 | 90 | 100 | 90 | 100 | 100 | 80 | 90 | 80 | herbicidal activity ECHCG [12]: 90%; herbicidal effect STEME [15]: 90%; herbicidal effect VERPE [16]: 90%; herbicidal effect ECHCG [19]: 100%; herbicidal effect MATIN [21]: 80%; herbicidal effect VIOTR [24]: 80%; herbicidal effect ECHCG [27]: 80%; herbicidal effect POLCO [28]: 80%; herbicidal effect SETVI [29]: 90%; herbicidal effect VERPE [30]: 90%
2 | Cc1cc2scnc2nc1C12CCCCC1O2 (centres unmarked) [Example I-151] | 100 | 100 | 100 | 100 | 100 | 90 | 100 | 100 | 100 | 90 | 100 | 100 | 100 | 100 | 90 | 90 | 100 | 90 | 80 | 80 | ABUTH, herbicidal effect in percent (%) [31]: 90%; DIGSA, herbicidal effect in percent (%) [32]: 100%; herbicidal activity ALOMY [33]: 100%; herbicidal effect STEME [15]: 100%; herbicidal effect VERPE [16]: 100%; herbicidal effect POLCO [34]: 80%; herbicidal effect DIGSA [35]: 100%; herbicidal effect VERPE [30]: 80%
3 | Fc1ccccc1-c1nc2ncsc2cc1Br [Example I-012] | – | – | – | – | – | – | – | – | – | – | – | – | – | 100 | 90 | 100 | 100 | 80 | 90 | 90 | herbicidal effect ABUTH [36]: 80%; herbicidal effect ECHCG [19]: 100%; herbicidal effect MATIN [21]: 90%; herbicidal effect POLCO [34]: 80%; herbicidal effect AVEFA [37]: 100%; herbicidal effect ECHCG [27]: 80%; herbicidal effect POLCO [28]: 90%; herbicidal effect SETVI [29]: 90%
4 | Cc1cscc1-c1nc2ncsc2cc1C [Example I-193] | 90 | 90 | 100 | 90 | 100 | 90 | 100 | 100 | 100 | 90 | 100 | 90 | 100 | 100 | 90 | 100 | 100 | 80 | 90 | 80 | herbicidal activity ABUTH [38]: 90%; herbicidal activity ECHCG [12]: 100%; herbicidal effect STEME [15]: 90%; herbicidal effect VERPE [16]: 90%; herbicidal effect ABUTH [36]: 80%; herbicidal effect ECHCG [19]: 100%; herbicidal effect MATIN [21]: 80%; herbicidal effect POLCO [34]: 80%; herbicidal effect AVEFA [37]: 80%; herbicidal effect ECHCG [27]: 80%; herbicidal effect SETVI [29]: 80%
